Measurements from paper PMC9227096, “Design, Synthesis, and In Vitro, In Silico and In Cellulo Evaluation of New Pyrimidine and Pyridine Amide and Carbamate Derivatives as Multi-Functional Cholinesterase Inhibitors” (Pharmaceuticals, 2022).

These compounds were tested against T1, equine BChE (eqBChE) (Equus caballus, UniProt P81908) (assay: Reversibility of inhibition vs. eqBChE (ultrafiltration and washing)). Conditions: carbaryl 54 µM, after ultrafiltration and washing with phosphate buffer; read-out: percentage of inhibition of eqBChE after removal of inhibitor and washing of the enzyme.
T1 construct: purchased Sigma-Aldrich (Milan, Italy)
T1 sequence (P81908 whole entry): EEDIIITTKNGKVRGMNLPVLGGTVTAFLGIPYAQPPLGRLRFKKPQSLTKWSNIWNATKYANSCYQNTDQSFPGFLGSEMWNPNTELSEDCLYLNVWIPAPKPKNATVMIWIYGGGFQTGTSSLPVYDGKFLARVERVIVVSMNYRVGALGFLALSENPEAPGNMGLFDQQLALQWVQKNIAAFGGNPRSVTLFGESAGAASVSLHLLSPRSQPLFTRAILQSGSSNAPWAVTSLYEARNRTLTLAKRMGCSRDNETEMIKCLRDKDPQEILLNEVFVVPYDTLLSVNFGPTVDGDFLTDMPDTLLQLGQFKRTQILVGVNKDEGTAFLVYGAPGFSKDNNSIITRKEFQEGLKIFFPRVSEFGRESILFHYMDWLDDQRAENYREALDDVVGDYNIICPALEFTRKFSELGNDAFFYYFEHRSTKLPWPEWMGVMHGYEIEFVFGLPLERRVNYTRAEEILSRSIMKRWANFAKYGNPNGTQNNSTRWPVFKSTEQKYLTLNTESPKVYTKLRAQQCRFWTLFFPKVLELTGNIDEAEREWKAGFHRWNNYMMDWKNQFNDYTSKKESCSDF
Format: biochemical
Description: Moreover, it was evaluated whether the inhibition mechanism of carbamate 18 towards eqBChE is reversible, irreversible or pseudo-irreversible. For this purpose, the percentages of inhibition were determined both after one hour of the incubation of compound 18 (5.4 µM) with eqBChE (1.25 U), both following the removal of the inhibitor and the washing of the enzyme, carried out through ultrafiltration devices for the concentration of biological samples [35, 36]. To validate the method, the same study was performed with carbaryl (54 µM), a known carbamoylating cholinesterase inhibitor.
After the incubation phase, the solution containing the inhibitor not bound to the enzyme was removed by centrifugation, retaining eqBChE on the membrane of the ultrafiltration devices. Then the enzyme was washed with phosphate buffer, to remove the bound inhibitor and to restore the enzyme activity.
Three solutions were prepared in 0.1 M phosphate buffer (pH = 7.4), containing eqBChE (0.50 UmL^−1), DTNB (0.3 mM) and acetylthiocholine (10 mM), respectively. A solution of compound 18 in DMSO (2.7 mM) was prepared. Then six Vivaspin® were used: • three were prepared with 2.5 mL of eqBChE solution (0.50 UmL^−1) and 5 µL of inhibitor solution; • three were prepared with 2.5 mL of eqBChE solution (0.50 UmL^−1) and 5 µL of DMSO.
The Vivaspin® thus prepared were incubated for 1 h at 25 °C. After this time the percentage of inhibition was determined following the Ellman method. The blank was recorded by taking 500 µL from the Vivaspin® and diluting them in the cuvette in 2.5 mL of DTNB solution (0.3 mM). The reaction was activated by adding 30 μL of acetylthiocholine solution (10 mM), so as to obtain a final concentration of 100 µM in the cuvette. The absorbance variation was measured between 0.5 and 1.5 min at 412 nm, repeating the measurement for each of the six Vivaspin®.
After this procedure the first centrifugation of the Vivaspin® was carried out for 60 min at 4000 rpm and subsequently the solutions that crossed the membrane and settled in the filtrate tube were removed. In this way the solutions present in the concentrator body were concentrated up to 100 µL. To these solutions 1 mL of 0.1 M phosphate buffer (pH = 7.4) was added and the second centrifugation was carried out for 30 min at 4000 rpm. The solutions present in the concentrator body were concentrated up to 200 µL. The second washing was carried out, adding 1 mL of buffer and centrifuging for 30 min at 4000 rpm. The solutions present in the concentrator body were concentrated up to 250 µL. A third wash was carried out adding 1 mL of buffer and centrifuging for 50 min at 4000 rpm. The solutions present in the concentrator body were concentrated up to 150 µL. At this point, to recover the concentrated solution, the filtrate tube was removed, the concentrator body was turned upside down and inserted inside the concentrate recovery cap. The Vivaspin® was centrifuged for 10 min at 4000 rpm. After this time the recovered solution was taken up with 3 mL of DTNB solution (0.3 mM) and transferred into the cuvette: blank was recorded. The reaction was activated when 30 µL of substrate solution (10 mM) were added so as to have a final concentration of 100 µM in the cuvette. The absorbance variation between 0.5 and 1.5 min was measured at 412 nm, repeating the measurement for each of the recovered solutions.
As a positive control carbaryl was used, for which the same procedure was followed, using a 27 mM carbaryl stock solution in DMSO.
Work on `CNC(=O)Oc1cccc2ccccc12` [carbaryl, reference compound] yielded an inhibition at 54 µM of 29.9%.

Same assay, conditions: carbaryl 54 µM, before washing; read-out: percentage of inhibition of eqBChE after one hour of incubation
With `CNC(=O)Oc1cccc2ccccc12` [carbaryl, reference compound] the inhibition at 54 µM was 97.4%.

Same assay, conditions: from restoration of enzymatic activity after washing
In the case of `CNC(=O)Oc1cccc2ccccc12` [carbaryl, reference compound], the “inhibition mechanism towards eqBChE (reversible, irreversible or pseudo-irreversible)” value is reported as “pseudo-irreversible”.

What follows are compounds tested against T1, equine BChE (eqBChE) (assay: Ellman's spectrophotometric method, percent inhibition of eqBChE (zero time and after 1 h incubation)). Conditions: 1 h, [I] = 900 nM, t = 1 h incubation at 25 °C; read-out: % Inhibition vs. eqBChE ± SD.
Format: biochemical
Description: (§1) Regarding the synthesized compounds enzymatic inhibition studies were carried out on Electrophorus electricus AChE (EeAChE) and equine BChE (eqBChE), according to Ellman’s spectrophotometric method.
(§2) All other chemical and biological reagents and solvents used were of the highest analytical, commercially available grade. The water, utilized for the preparation of the phosphate buffer and of the solutions of compounds, was distilled and filtered on nylon membrane filters with 0.2 μm pore size with the Millipore® Filtration apparatus before each use. Micropipettes Labmate (BRAND Dig. 10–100 μL; Dig. 100–1000 μL; Dig. 0.1–2 μL) and Transferpette (HIGH TECH LAB LM200: 20–200 μL; LM5000: 1000–5000 μL) were used to collect the samples. The assays were carried out by double beam UV–Vis Lambda 40 Perkin Elmer spectrophotometer, using optical polystyrene cuvettes (10 × 10 × 45 mm, 340–800 nm optical transparency), each measure was repeated at least in triplicate. […] Vivaspin® 2 Sartorius, with a membrane of 3000 MWCO (molecular weight cutoff) consisting of polyethersulfone (PES), cellulose triacetate (CTA) and hydrosart, was used for the ultrafiltration procedures. An ALC PK110 bench-top centrifuge was used for centrifugation. The spectrophotometric method of Ellman, with minor modifications, was used to evaluate the inhibition of cholinesterase enzymes. […] EeAChE and eqBChE were periodically tested to evaluate the effective enzymatic activity.
(§3) An amount of 3.0 mL of a solution in 0.1 M phosphate buffer (pH = 7.4) containing DTNB (0.25 mM) and EeAChE (0.083 UmL^−1) or eqBChE (0.083 UmL^−1) were placed in a polystyrene cuvette of 1.0 cm path length; 1 µL of a solution in DMSO of the tested compound was added to obtain in cuvette concentration range 9 µM–0.09 µM. With this solution the blank was made.
(§4) Each experiment was repeated at least in triplicate.
(§5) The cuvettes were prepared consecutively at intervals of 3 min to allow equal incubation times.
With `O=C(NCCCCCCNc1ncccn1)OCc1ccccc1` [Compound 17, Benzyl (6-(pyrimidin-2-ylamino)hexyl)carbamate] the inhibition at 0.9 µM was 13.3 ± 3.9%.
Work on `O=C(NCCCCCCNc1ncccn1)Oc1ccccc1` [Compound 16, Phenyl (6-(pyrimidin-2-ylamino)hexyl)carbamate] yielded an inhibition at 0.9 µM of 66.4 ± 5.9%.
`O=C(NCCCCCCNc1ccccn1)OCc1ccccc1` [Compound 19, Benzyl (6-(pyridin-2-ylamino)hexyl)carbamate] showed an inhibition at 0.9 µM of 32.4 ± 7.5%.

Same assay, conditions: [I] 900 nM; 0.0833 U/mL enzyme, 100 µM acetylthiocholine; read-out: % Inhibition vs. eqBChE ± SD
In the case of `O=C(NCCCCCCNc1ncccn1)c1cc2ccccc2[nH]1` [Compound 11, N-(6-(pyrimidin-2-ylamino)hexyl)-1H-indole-2-carboxamide], the inhibition at 0.9 µM is reported as 14.1 ± 4.7%.
Work on `O=C(Cc1ccccc1)NCCCCCCNc1ccccn1` [Compound 13, 2-phenyl-N-(6-(pyridine-2-ylamino)hexyl)acetamide] yielded an inhibition at 0.9 µM of 4.3 ± 5.6%.
Compound `O=C(C=Cc1ccccc1)NCCCCCCNc1ccccn1` [Compound 15, N-(6-(pyridin-2-ylamino)hexyl)cinnamamide] has an inhibition at 0.9 µM of 31.5 ± 3.1%.

Same assay, conditions: [I] 9 µM; 0.0833 U/mL enzyme, 100 µM acetylthiocholine
With `O=C(NCCCCCCNc1ncccn1)c1cc2ccccc2[nH]1` [Compound 11, N-(6-(pyrimidin-2-ylamino)hexyl)-1H-indole-2-carboxamide] the “% Inhibition vs. eqBChE ± SD” value was “ns ^c”.
With `O=C(C=Cc1ccccc1)NCCCCCCNc1ncccn1` [Compound 6, N-(6-(pyrimidin-2-ylamino)hexyl)cinnamamide] the “% Inhibition vs. eqBChE ± SD” value was “ns ^c”.

Same assay, conditions: [I] 9 µM; 0.0833 U/mL enzyme, 100 µM acetylthiocholine; read-out: % Inhibition vs. eqBChE ± SD
`O=C(Cc1ccc(Oc2ccccc2)cc1)NCCCCCCNc1ncccn1` [Compound 5, 2-(4-phenoxyphenyl)-N-(6-(pyrimidin-2-ylamino)hexyl)acetamide] showed an inhibition at 9 µM of 16.6 ± 5.5%.
`O=C(Cc1ccccc1)NCCCCCCNc1ccccn1` [Compound 13, 2-phenyl-N-(6-(pyridine-2-ylamino)hexyl)acetamide] was tested, and the inhibition at 9 µM was 49.1 ± 3.2%.
`O=C(Cc1ccccc1)NCCCCCCNc1ncccn1` [Compound 4, 2-phenyl-N-(6-(pyrimidin-2-ylamino)hexyl)acetamide] was tested, and the inhibition at 9 µM was 5.1 ± 4.7%.
In the case of `O=C(C=Cc1ccccc1)NCCCCCCNc1ccccn1` [Compound 15, N-(6-(pyridin-2-ylamino)hexyl)cinnamamide], the inhibition at 9 µM is reported as 64.7 ± 2.9%.
In the case of `COc1ccccc1C(=O)NCCCCCCNc1ncccn1` [Compound 9, 2-methoxy-N-(6-(pyrimidin-2-ylamino)hexyl)benzamide], the inhibition at 9 µM is reported as 9.3 ± 2.4%.
`O=C(NCCCCCCNc1ncccn1)c1ccccc1` [Compound 3, N-(6-(pyrimidin-2-ylamino)hexyl)benzamide] gave an inhibition at 9 µM of roughly 9%.
In the case of `O=C(NCCCCCCNc1ncccn1)c1ccc(Cl)cc1` [Compound 8, 4-chloro-N-(6-(pyrimidin-2-ylamino)hexyl)benzamide], the inhibition at 9 µM is reported as 2.1 ± 3.5%.
Compound `O=C(NCCCCCCNc1ncccn1)c1ccc(Br)cc1` [Compound 7, 4-bromo-N-(6-(pyrimidin-2-ylamino)hexyl)benzamide] has an inhibition at 9 µM of 7.4 ± 2%.

The compounds below were run against T2, Electrophorus electricus AChE (EeAChE) (Electrophorus electricus, UniProt O42275) (assay: Ellman's spectrophotometric method, percent inhibition of EeAChE (zero time and after 1 h incubation)). Conditions: 1 h, read-out: % Inhibition vs. EeAChE ± SD, [I] = 9 µM, t = 1 h incubation at 25 °C.
T2 construct: purchased Sigma-Aldrich (Milan, Italy)
T2 sequence (O42275 24-633): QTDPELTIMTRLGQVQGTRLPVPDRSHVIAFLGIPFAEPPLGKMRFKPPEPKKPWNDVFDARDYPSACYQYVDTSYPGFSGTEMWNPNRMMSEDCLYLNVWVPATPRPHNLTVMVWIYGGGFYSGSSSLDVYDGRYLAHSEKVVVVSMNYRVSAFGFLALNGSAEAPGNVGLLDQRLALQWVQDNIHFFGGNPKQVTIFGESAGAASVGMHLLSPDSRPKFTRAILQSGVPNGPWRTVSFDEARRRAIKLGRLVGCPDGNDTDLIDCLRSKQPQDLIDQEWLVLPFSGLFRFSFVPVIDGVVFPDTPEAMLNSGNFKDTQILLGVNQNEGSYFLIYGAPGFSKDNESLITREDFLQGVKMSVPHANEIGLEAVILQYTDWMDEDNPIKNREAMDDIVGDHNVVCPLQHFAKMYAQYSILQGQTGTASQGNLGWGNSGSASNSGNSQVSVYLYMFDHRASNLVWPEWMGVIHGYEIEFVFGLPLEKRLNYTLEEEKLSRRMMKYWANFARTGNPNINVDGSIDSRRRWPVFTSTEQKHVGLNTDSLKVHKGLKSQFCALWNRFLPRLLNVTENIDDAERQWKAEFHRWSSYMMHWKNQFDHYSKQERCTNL
Format: biochemical
Description: as §1, §2, §3, §4, §5
`O=C(NCCCCCCNc1ncccn1)OCc1ccccc1` [Compound 17, Benzyl (6-(pyrimidin-2-ylamino)hexyl)carbamate] was tested, and the inhibition at 9 µM was 10.9 ± 1.4%.
In the case of `O=C(NCCCCCCNc1ncccn1)Oc1ccccc1` [Compound 16, Phenyl (6-(pyrimidin-2-ylamino)hexyl)carbamate], the inhibition at 9 µM is reported as 7.2 ± 0.8%.
Compound `O=C(NCCCCCCNc1ccccn1)OCc1ccccc1` [Compound 19, Benzyl (6-(pyridin-2-ylamino)hexyl)carbamate] has an inhibition at 9 µM of 45.4 ± 2.7%.

Same assay, conditions: [I] 9 µM; 0.0833 U/mL enzyme, 100 µM acetylthiocholine
With `O=C(NCCCCCCNc1ncccn1)c1cc2ccccc2[nH]1` [Compound 11, N-(6-(pyrimidin-2-ylamino)hexyl)-1H-indole-2-carboxamide] the “% Inhibition vs. EeAChE ± SD” value was “ns ^c”.
In the case of `O=C(C=Cc1ccccc1)NCCCCCCNc1ncccn1` [Compound 6, N-(6-(pyrimidin-2-ylamino)hexyl)cinnamamide], the “% Inhibition vs. EeAChE ± SD” value is reported as “ns ^c”.

Same assay, conditions: read-out: % Inhibition vs. EeAChE ± SD, [I] 900 nM; 0.0833 U/mL enzyme, 100 µM acetylthiocholine
Compound `O=C(NCCCCCCNc1ncccn1)c1cc2ccccc2[nH]1` [Compound 11, N-(6-(pyrimidin-2-ylamino)hexyl)-1H-indole-2-carboxamide] has an inhibition at 0.9 µM of 5.5 ± 1.4%.
For `O=C(C=Cc1ccccc1)NCCCCCCNc1ncccn1` [Compound 6, N-(6-(pyrimidin-2-ylamino)hexyl)cinnamamide], the inhibition at 0.9 µM was 7 ± 1.6%.

Same assay, conditions: read-out: % Inhibition vs. EeAChE ± SD, [I] 9 µM; 0.0833 U/mL enzyme, 100 µM acetylthiocholine
For `O=C(Cc1ccc(Oc2ccccc2)cc1)NCCCCCCNc1ncccn1` [Compound 5, 2-(4-phenoxyphenyl)-N-(6-(pyrimidin-2-ylamino)hexyl)acetamide], the inhibition at 9 µM was 10.8 ± 2.7%.
`O=C(Cc1ccccc1)NCCCCCCNc1ccccn1` [Compound 13, 2-phenyl-N-(6-(pyridine-2-ylamino)hexyl)acetamide] gave an inhibition at 9 µM of 46.7 ± 1.1%.
`O=C(Cc1ccccc1)NCCCCCCNc1ncccn1` [Compound 4, 2-phenyl-N-(6-(pyrimidin-2-ylamino)hexyl)acetamide] was tested, and the inhibition at 9 µM was 5 ± 4.4%.
Work on `O=C(C=Cc1ccccc1)NCCCCCCNc1ccccn1` [Compound 15, N-(6-(pyridin-2-ylamino)hexyl)cinnamamide] yielded an inhibition at 9 µM of 45.4 ± 2.5%.
Work on `COc1ccccc1C(=O)NCCCCCCNc1ncccn1` [Compound 9, 2-methoxy-N-(6-(pyrimidin-2-ylamino)hexyl)benzamide] yielded an inhibition at 9 µM of 7.2 ± 0.8%.
`O=C(NCCCCCCNc1ncccn1)c1ccccc1` [Compound 3, N-(6-(pyrimidin-2-ylamino)hexyl)benzamide] gave an inhibition at 9 µM of roughly 3%.
With `O=C(NCCCCCCNc1ncccn1)c1ccc(Cl)cc1` [Compound 8, 4-chloro-N-(6-(pyrimidin-2-ylamino)hexyl)benzamide] the inhibition at 9 µM was 9.9 ± 0.8%.
In the case of `O=C(NCCCCCCNc1ncccn1)c1ccc(Br)cc1` [Compound 7, 4-bromo-N-(6-(pyrimidin-2-ylamino)hexyl)benzamide], the inhibition at 9 µM is reported as 11.2 ± 5%.
